Publication PMC11873939, “Target Identification with Live-Cell Photoaffinity Labeling and Mechanism of Action Elucidation of ARN23765, a Highly Potent CFTR Corrector” (Journal of Medicinal Chemistry, 2025)
pEC50: −log10 of the molar value.

Experiments:
[1] = biological target: T1, F508del-CFTR (Homo sapiens, UniProt P13569, DEL508-508); assay: HS-YFP functional assay in CFBE41o- cells stably overexpressing F508del-CFTR; assay type: cell-based; conditions: 24 h treatment; for pEC50 / HS-YFP assay in CFBE41o- cells EC50: 3 nM-10 µM range; for HS-YFP assay in CFBE41o- cells Emax: values normalized to DMSO-incubated cells
T1 construct: expressed in transfected cells
T1 sequence (P13569 with tags, fused parts or gaps DEL508-508): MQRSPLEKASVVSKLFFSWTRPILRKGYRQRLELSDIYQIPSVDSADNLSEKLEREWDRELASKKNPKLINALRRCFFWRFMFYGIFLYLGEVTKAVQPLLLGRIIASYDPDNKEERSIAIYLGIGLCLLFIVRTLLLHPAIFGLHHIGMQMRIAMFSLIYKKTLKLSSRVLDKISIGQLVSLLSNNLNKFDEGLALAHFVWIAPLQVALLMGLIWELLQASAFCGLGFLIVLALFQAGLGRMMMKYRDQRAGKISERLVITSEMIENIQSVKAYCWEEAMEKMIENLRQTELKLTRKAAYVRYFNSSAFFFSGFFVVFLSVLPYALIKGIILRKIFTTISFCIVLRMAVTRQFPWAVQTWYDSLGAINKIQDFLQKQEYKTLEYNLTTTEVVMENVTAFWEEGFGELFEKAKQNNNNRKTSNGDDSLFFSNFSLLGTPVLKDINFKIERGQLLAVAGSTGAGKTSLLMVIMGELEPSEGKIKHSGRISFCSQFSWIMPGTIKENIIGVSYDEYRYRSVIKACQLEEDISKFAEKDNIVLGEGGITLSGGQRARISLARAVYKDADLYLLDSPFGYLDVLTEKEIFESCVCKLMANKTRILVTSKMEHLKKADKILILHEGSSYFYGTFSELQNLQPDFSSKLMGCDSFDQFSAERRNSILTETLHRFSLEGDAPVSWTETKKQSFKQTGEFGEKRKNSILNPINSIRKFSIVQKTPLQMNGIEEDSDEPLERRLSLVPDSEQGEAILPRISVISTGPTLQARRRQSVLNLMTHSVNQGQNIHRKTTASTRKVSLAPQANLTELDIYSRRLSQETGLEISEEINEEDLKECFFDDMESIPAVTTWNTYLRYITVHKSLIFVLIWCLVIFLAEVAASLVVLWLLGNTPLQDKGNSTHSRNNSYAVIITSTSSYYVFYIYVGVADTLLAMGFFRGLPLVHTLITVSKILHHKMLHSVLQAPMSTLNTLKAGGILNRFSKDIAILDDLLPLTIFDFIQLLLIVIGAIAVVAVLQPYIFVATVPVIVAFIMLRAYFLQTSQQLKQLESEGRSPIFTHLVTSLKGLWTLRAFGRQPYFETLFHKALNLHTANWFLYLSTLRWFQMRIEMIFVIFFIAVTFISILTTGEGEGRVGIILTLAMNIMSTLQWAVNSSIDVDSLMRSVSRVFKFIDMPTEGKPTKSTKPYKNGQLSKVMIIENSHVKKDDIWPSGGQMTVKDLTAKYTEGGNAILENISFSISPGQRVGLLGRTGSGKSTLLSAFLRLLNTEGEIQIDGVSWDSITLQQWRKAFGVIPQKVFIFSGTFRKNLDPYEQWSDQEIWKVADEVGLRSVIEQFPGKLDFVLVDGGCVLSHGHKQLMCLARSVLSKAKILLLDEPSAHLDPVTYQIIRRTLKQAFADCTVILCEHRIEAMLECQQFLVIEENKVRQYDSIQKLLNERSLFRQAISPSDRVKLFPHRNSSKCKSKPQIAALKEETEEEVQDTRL
Method: These analogues were tested in the functional assay on the human bronchial epithelia-derived cell line, CFBE41o-, which stably overexpresses F508del-CFTR and the halide-sensitive yellow fluorescent protein (HS-YFP).[31] […]
HS-YFP-based assay for CFTR activity
Twenty-four hours after seeding on 96-well plates, CFBE41o- cells stably over-expressing F508del-CFTR and the HS-YFP were treated with test compounds at different concentrations in the 3 nM-10 µM range.1 Cells treated with vehicle alone (DMSO) and with ARN23765, respectively, served as negative and positive controls. The following day, cells were washed with PBS containing (in mM) 137 NaCl, 2.7 KCl, 8.1 Na2HPO4, 1.5 KH2PO4, 1.0 CaCl2, and 0.5 MgCl2. Cells were then incubated for 25 min with […] of PBS plus forskolin (20 µM) and VX-770 (1 µM) to maximally stimulate F508del-CFTR. Cells were then transferred to a microplate reader (FluoStar Galaxy; BMG Labtech, Offenburg, Germany) for CFTR activity determination. The plate reader was equipped with high-quality excitation (HQ500/20X: 500 ± 10 nm) and emission (HQ535/30M: 535 ± 15 nm) filters for YFP (Chroma Technology). Each assay comprised a continuous 14 s fluorescence reading, 2 s before and 12 s after injection of […] of an iodide-containing solution (PBS with Cl- replaced by I-; final I- concentration […]). Data were normalized to the initial background-subtracted fluorescence. To determine I- influx rate, the final 11 s of the data for each well were fitted with an exponential function to extrapolate initial slope (dF/dt). Reproducibility of results was confirmed by performing three independent experiments. […]

[2] = test system: CFTR; assay: Live-cell photoaffinity labeling in CFTR–/– CFBE41o- cells (control); assay type: binding, human; conditions: probe 1 μM, 2 h
[3] = biological target: T2, wt-CFTR (Homo sapiens, UniProt P13569); assay: Live-cell photoaffinity labeling, streptavidin pull-down and CFTR Western blot; assay type: binding; conditions: wt-CFTR CFBE41o- cells, probe 1 μM; for CFTR in streptavidin pull-down (WB) after PAL: 2 h, UV 365 nm
T2 construct: expressed in transfected cells
T2 sequence (P13569 whole entry): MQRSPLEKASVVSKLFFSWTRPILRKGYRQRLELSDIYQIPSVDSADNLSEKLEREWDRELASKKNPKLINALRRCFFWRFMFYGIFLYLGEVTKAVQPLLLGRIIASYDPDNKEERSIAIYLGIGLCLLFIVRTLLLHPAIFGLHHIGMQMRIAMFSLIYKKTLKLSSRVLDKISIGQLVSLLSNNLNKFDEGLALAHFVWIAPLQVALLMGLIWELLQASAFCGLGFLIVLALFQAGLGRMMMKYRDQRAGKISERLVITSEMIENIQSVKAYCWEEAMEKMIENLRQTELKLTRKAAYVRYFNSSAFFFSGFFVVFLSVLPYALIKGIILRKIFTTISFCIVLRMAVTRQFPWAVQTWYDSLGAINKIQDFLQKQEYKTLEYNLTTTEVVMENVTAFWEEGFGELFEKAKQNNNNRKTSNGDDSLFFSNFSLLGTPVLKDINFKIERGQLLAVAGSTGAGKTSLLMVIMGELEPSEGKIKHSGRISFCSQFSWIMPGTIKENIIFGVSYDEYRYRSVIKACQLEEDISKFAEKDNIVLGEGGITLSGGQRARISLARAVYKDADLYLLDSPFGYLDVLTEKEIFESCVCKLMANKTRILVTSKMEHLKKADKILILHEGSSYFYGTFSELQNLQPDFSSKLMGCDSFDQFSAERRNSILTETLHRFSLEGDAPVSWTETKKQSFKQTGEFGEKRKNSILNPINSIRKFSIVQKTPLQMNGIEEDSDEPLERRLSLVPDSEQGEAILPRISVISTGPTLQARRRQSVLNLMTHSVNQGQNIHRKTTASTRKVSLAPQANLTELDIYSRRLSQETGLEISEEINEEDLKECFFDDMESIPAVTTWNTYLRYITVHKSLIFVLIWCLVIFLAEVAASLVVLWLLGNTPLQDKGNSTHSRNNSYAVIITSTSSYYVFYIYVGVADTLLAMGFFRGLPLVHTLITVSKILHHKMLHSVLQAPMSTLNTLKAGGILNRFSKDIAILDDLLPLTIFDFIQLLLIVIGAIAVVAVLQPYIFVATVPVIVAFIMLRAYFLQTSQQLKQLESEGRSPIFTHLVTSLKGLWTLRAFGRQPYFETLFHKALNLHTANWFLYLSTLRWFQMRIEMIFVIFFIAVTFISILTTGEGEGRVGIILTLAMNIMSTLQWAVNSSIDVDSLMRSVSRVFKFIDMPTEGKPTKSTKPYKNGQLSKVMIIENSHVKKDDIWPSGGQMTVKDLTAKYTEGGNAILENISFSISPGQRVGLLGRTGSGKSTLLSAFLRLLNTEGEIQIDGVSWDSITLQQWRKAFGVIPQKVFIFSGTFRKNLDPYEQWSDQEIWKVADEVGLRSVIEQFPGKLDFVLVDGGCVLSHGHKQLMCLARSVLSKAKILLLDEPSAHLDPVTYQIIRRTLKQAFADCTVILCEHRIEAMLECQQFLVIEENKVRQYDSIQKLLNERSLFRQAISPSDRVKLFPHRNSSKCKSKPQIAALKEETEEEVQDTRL
Method: (§1) Wt-CFTR or F508del-CFTR CFBE41o- cells were plated at 2–2.5 × 10^6 cells/plate in 6 cm diameter dishes. The day after, sodium butyrate (5–2.5 mM) was added for 24 h; next, the medium was exchanged with fresh one supplemented with DMSO (0.25%) (276855, Sigma-Aldrich) or probe (1 μM). For competition experiments, a 25-fold excess of ARN23765 (25 μM) was added 30 min before probe’s addition. For the analysis of “corrected” F508del-CFTR, F508del-CFTR CFBE41o- cells were kept at 27 °C for 24 h before adding the probes. Probes were incubated with cells for 2 h, then the medium was removed, and plates were washed twice with phosphate buffer saline (PBS). Cells were placed on ice and irradiated for 5 min at a wavelength of 365 nm using a 100-W UV-lamp (95–0127–02 model B100-AP, Analytik Jena). Cells were harvested with trypsin (T4299, Sigma-Aldrich), washed with PBS (D8537, Sigma-Aldrich), and pellets were stored at −80 °C until used, centrifuged at 300 × g and washed twice with PBS (D8537, Sigma-Aldrich). Pellets from in-cell photoaffinity labeling with alkyne-probes (PAP_1 and PAP_2) were lysed in PBS plus protease inhibitor cocktail (78429, Thermo Scientific) by sonication. The suspension was centrifuged at 800 × g for 20 min at 4 °C to discard nuclei and cell debris. The total extracted proteins were quantified with the bicinchoninic acid (BCA) protein assay (23225, Thermo Scientific) and subjected to CuAAC before proceeding with pull-down. Pellets from in-cell photoaffinity labeling with desthio-biotinylated (DS-biot) probes (PAP_1 DS-biot, PAP_2 DS-biot, PAP_N1 DS-biot, PAP_N2 DS-biot) were lysed with a modified RIPA buffer [50 mM tris-HCl pH 8, 150 mM NaCl, 0.5% Triton-X100, 0.2% SDS, 1 mM ethylenediaminetetraacetic acid (EDTA)] supplemented with protease inhibitor cocktail and centrifuged at 10.000× g for 10 min. The protein content in the supernatant was quantified by BCA protein assay. Protein lysate (200 μg) was diluted to 800 μL and the Triton-X100 percentage was reduced to 0.2% before proceeding to pull-down.
Copper-catalyzed azide–alkyne cycloaddition (CuAAC) was performed according to a previously described protocol.[62] Briefly, to the protein preparation (250 μL at 1 mg/mL protein concentration) the following reagents were added at the indicated final concentrations: 100 μM 5/6-TAMRA-azide-desthiobiotin (CLK-1110–5, Jena Bioscience), 1.0 mM tris-(2-carbossietil)phosphine (TCEP, C4706, Sigma-Aldrich), 100 μM tris-[(1-benzyl-1H-1,2,3-triazol-4-yl)methyl]amine (TBTA, 678937, Sigma-Aldrich), 1.0 mM CuSO4.5H2O (Sigma), and 0.8% sodium dodecyl sulfate (SDS). TBTA was first dissolved in DMSO at 83.5 mM and then diluted with four volumes of tert-butanol. The reaction was mixed by vortexing and incubated for 1 h at 25 °C. After the reaction time, proteins were precipitated with 5 volumes of cold acetone overnight at −20 °C. Samples were centrifuged for 20 min at 20.000× g, and the pellets were washed with methanol, air-dried, and finally resuspended with 600 μL of 1% SDS. SDS concentration was then diluted to 0.2% with PBS before proceeding to pull-down.
(§2) High capacity streptavidin agarose (20359, Thermo Scientific) (25 μL) was added to PAP-labeled cell extracts for 1 h at room temperature under gentle rotation. The streptavidin beads were collected by centrifugation and washed four times with lysis buffer. Resin-bound proteins were eluted with 45 μL of 5 mM biotin (B4501, Sigma-Aldrich) for 30 min at room temperature and analyzed with Western blot for CFTR expression. Input samples (4 and 8 μg for wt-CFTR and F508del-CFTR CFBE41o-, respectively) were collected immediately before incubation with streptavidin resin. Input and pulled-down samples were analyzed with WB as described in the supplementary methods.

[4] = biological target: T1, F508del-CFTR; assay: as above; assay type: binding; conditions: for CFTR forms in streptavidin pull-down (WB) after PAL: F508del-CFTR CFBE41o- cells kept at 27 °C for 24 h (low-temperature rescue) before PAL; for CFTR in streptavidin pull-down (WB) after PAL: F508del-CFTR CFBE41o- cells, probe 1 μM, 2 h, UV 365 nm
Method: as §1, §2

Row | pEC50 [1] | HS-YFP assay in CFBE41o- cells Emax [1] | Effect in CFTR rescuing (HS-YFP assay, Figure S2) ([1]; vs DMSO) | CFTR in streptavidin pull-down (WB) after PAL [3] | CFTR in streptavidin pull-down (WB) after PAL [4] | HS-YFP assay in CFBE41o- cells EC50 [1] | SMILES | CFTR in streptavidin pull-down (WB) after PAL [2] | CFTR forms in streptavidin pull-down (WB) after PAL [4] | CFTR in pull-down (WB) after PAL with alkyne probe and CuAAC DS-biot tagging ([3]; UV irradiation, CuAAC)
1 | 7.62 | 1.2 | no significant effect |  |  |  | CN(C(=O)c1cccc(-n2nc(C(F)(F)F)c3c2[C@@H](Oc2ccc(C(=O)O)cc2)CCC3)c1)c1ccc(C2(C(F)(F)F)N=N2)cc1 [Compound 2, (S)-4-((1-(3-(Methyl(4-(3-(trifluoromethyl)-3H-diazirin-3-yl)phenyl)carbamoyl)phenyl)-3-(trifluoromethyl)-4,5,6,7-tetrahydro-1H-indazol-7-yl)oxy)benzoic Acid] |  |  | 
2 | 8.48 | 3 |  |  |  |  | C#Cc1ccc(O[C@H]2CCCc3c(C(F)(F)F)nn(-c4cccc(C(=O)N(C)c5ccc6c(c5)OC(F)(F)O6)c4)c32)cc1 [Compound 1, (S)-N-(2,2-Difluorobenzo[d][1,3]dioxol-5-yl)-3-(7-(4-ethynylphenoxy)-3-(trifluoromethyl)-4,5,6,7-tetrahydro-1H-indazol-1-yl)-N-methylbenzamide] |  |  | 
3 | > 8.52 | 2.8 |  |  |  |  | C#CCCC1(CCNC(=O)c2ccc(O[C@H]3CCCc4c(C(F)(F)F)nn(-c5cccc(C(=O)N(C)c6ccc7c(c6)OC(F)(F)O7)c5)c43)cc2)N=N1 [PAP_1, (S)-3-(7-(4-((2-(3-(But-3-yn-1-yl)-3H-diazirin-3-yl)ethyl)carbamoyl)phenoxy)-3-(trifluoromethyl)-4,5,6,7-tetrahydro-1H-indazol-1-yl)-N-(2,2-difluorobenzo[d][1,3]dioxol-5-yl)-N-methylbenzamide] |  |  | 
4 | 6.91 | 2.7 |  | consistently captured | consistently captured |  | C[C@H]1NC(=O)N[C@H]1CCCCCC(=O)NCCOCCOCCOCCn1cc(CCC2(CCNC(=O)c3ccc(O[C@H]4CCCc5c(C(F)(F)F)nn(-c6cccc(C(=O)N(C)c7ccc8c(c7)OC(F)(F)O8)c6)c54)cc3)N=N2)nn1 [PAP_1 DS-biot, N-(2,2-Difluorobenzo[d][1,3]dioxol-5-yl)-N-methyl-3-((S)-7-(4-((2-(3-(2-(1-(18-((4S,5R)-5-methyl-2-oxoimidazolidin-4-yl)-13-oxo-3,6,9-trioxa-12-azaoctadecyl)-1H-1,2,3-triazol-4-yl)ethyl)-3H-diazirin-3-yl)ethyl)carbamoyl)phenoxy)-3-(trifluoromethyl)-4,5,6,7-tetrahydro-1H-indazol-1-yl)benzamide] | did not detect CFTR | bound and pulled down both F508del-CFTR immature (band B) and mature (band C) protein | 
5 | 6.41 | 2.1 |  |  |  |  | C#Cc1ccc(O[C@H]2CCCc3c(C(F)(F)F)nn(-c4cccc(C(=O)N(C)c5ccc(C6(C(F)(F)F)N=N6)cc5)c4)c32)cc1 [PAP_2, (S)-3-(7-(4-Ethynylphenoxy)-3-(trifluoromethyl)-4,5,6,7-tetrahydro-1H-indazol-1-yl)-N-methyl-N-(4-(3-(trifluoromethyl)-3H-diazirin-3-yl)phenyl)benzamide] |  |  | barely detect a band corresponding to CFTR
6 |  |  |  | not pulled down | not pulled down | devoid of activity | C[C@H]1NC(=O)N[C@H]1CCCCCC(=O)NCCOCCOCCOCCn1cc(-c2ccc(O[C@H]3CCCc4c(C(F)(F)F)nn(-c5cccc(C(=O)Nc6ccc(C7(C(F)(F)F)N=N7)cc6)c5)c43)cc2)nn1 [PAP_N2 DS-biot, 3-((S)-7-(4-(1-(18-((4S,5R)-5-Methyl-2-oxoimidazolidin-4-yl)-13-oxo-3,6,9-trioxa-12-azaoctadecyl)-1H-1,2,3-triazol-4-yl)phenoxy)-3-(trifluoromethyl)-4,5,6,7-tetrahydro-1H-indazol-1-yl)-N-(4-(3-(trifluoromethyl)-3H-diazirin-3-yl)phenyl)benzamide] |  |  | 
7 |  |  |  | not pulled down | not pulled down | devoid of activity | C[C@H]1NC(=O)N[C@H]1CCCCCC(=O)NCCOCCOCCOCCn1cc(CCC2(CCNC(=O)c3ccc(O[C@H]4CCCc5c(C(F)(F)F)nn(-c6cccc(C(=O)Nc7ccc8c(c7)OC(F)(F)O8)c6)c54)cc3)N=N2)nn1 [PAP_N1 DS-biot, N-(2,2-Difluorobenzo[d][1,3]dioxol-5-yl)-3-((S)-7-(4-((2-(3-(2-(1-(18-((4S,5R)-5-methyl-2-oxoimidazolidin-4-yl)-13-oxo-3,6,9-trioxa-12-azaoctadecyl)-1H-1,2,3-triazol-4-yl)ethyl)-3H-diazirin-3-yl)ethyl)carbamoyl)phenoxy)-3-(trifluoromethyl)-4,5,6,7-tetrahydro-1H-indazol-1-yl)benzamide] |  |  | 
8 | 6.32 | 1.4 |  | consistently captured | consistently captured |  | C[C@H]1NC(=O)N[C@H]1CCCCCC(=O)NCCOCCOCCOCCn1cc(-c2ccc(O[C@H]3CCCc4c(C(F)(F)F)nn(-c5cccc(C(=O)N(C)c6ccc(C7(C(F)(F)F)N=N7)cc6)c5)c43)cc2)nn1 [PAP_2 DS-biot, N-Methyl-3-((S)-7-(4-(1-(18-((4S,5R)-5-methyl-2-oxoimidazolidin-4-yl)-13-oxo-3,6,9-trioxa-12-azaoctadecyl)-1H-1,2,3-triazol-4-yl)phenoxy)-3-(trifluoromethyl)-4,5,6,7-tetrahydro-1H-indazol-1-yl)-N-(4-(3-(trifluoromethyl)-3H-diazirin-3-yl)phenyl)benzamide] | did not detect CFTR | bound and pulled down both F508del-CFTR immature (band B) and mature (band C) protein | 
